Data published in article PMC3735939, “The low levels of eicosapentaenoic acid in rat brain phospholipids are maintained via multiple redundant mechanisms” (Journal of Lipid Research, 2013).

Key:
Assay type in all cases: in vivo, rat
[1] = Brain unesterified FA concentrations (GC-MS; EPA by LC-MS/MS) in vehicle- or MEP-treated rats; details: MEP vs vehicle
Protocol: At 15 weeks of age, 16 rats were randomized to receive vehicle or 10 mg/kg MEP via tail vein catheter as described above. […] Brain hemispheres were homogenized in ethanol to yield a concentration of 100 mg tissue/ml. The unesterified FAs from 100 mg of brain tissue were isolated. The unesterified FA bands were collected and extracted twice from silica by hexane:isopropanol (3:2 by volume) with 5.5% water. […] The mixtures were shaken for 15 min and dried down with nitrogen gas. FA-PFB esters (FAPEs) were reconstituted in 100 μl hexane for GC-MS analysis as described below. For measurements of unesterified EPA, brain samples were homogenized in ethanol on ice. An aliquot of 100 mg tissue was spiked with ARA-d8 (20 ng; Cayman Chemical, Ann Arbor, MI) and dried under nitrogen gas in reduced light conditions. Residues were dissolved in ethanol, acidified to pH 4 with 1 N HCl, and extracted three times with ethyl acetate. After washing to neutrality with water, the ethyl acetate fraction was dried under nitrogen and transferred to siliconized minivials for liquid chromatography-tandem mass spectrometry (LC-MS/MS) analysis as described below. Brain unesterified EPA was detected using an Agilent HPLC 1200 equipped with a Zorbax SB-Phenyl column. HPLC solvent contained 4 μl/l propionic acid. The initial conditions of elution were set at 400 μl/min gradient system consisting of (A) water and (B) acetonitrile. […] Mass spectrometry analyses were carried out on API5500 triple quadruple mass spectrometer (AB SCIEX, Concord, ON, Canada). The QTRAP analyses were conducted in electrospray ionization negative ion mode. The turbospray temperature was set to 500°C and the ion spray voltage to 4,500 V. The collision energy, declustering potential, and collision cell exit potential were optimized and were set to 15, 50, and 11, respectively. Concentration was quantified by comparing the deuterium-to-protium ratio of brain unesterified EPA with standard lines generated from authentic standards. Authentic standards in appropriate dilutions (0.002-2 ng) were prepared and analyzed simultaneously with brain samples. The lower limit of quantification (LLQ) was 0.002 ng (6.3 fmol of […] identified with an Agilent 7890A gas chromatograph (Agilent Technologies) equipped with a SP-2380 (Supelco) fused silica column (Agilent Technologies; 30 m × 0.25 mm I.D. × 0.2 μm film thickness) and an Agilent 5975C quadruple mass spectrometry detector (Agilent Technologies). The sample was injected in split mode (10:1). The injection port temperature was set to 240°C and the ionization mode was set to negative chemical ionization using methane. FAPEs were eluted using a temperature program initially set at 150°C for 1 min, increase at 12°C/min to 270°C, and then at 40°C/min to 275°C for 3 min. […]

[2] = system: mitochondrial FA β-oxidation; experiment: Radioactivity in brain aqueous fraction (marker of β-oxidation) after 5 min intravenous 14C-tracer infusion; details: MEP 10 mg/kg iv 10 min before infusion
Protocol: (§1) Twenty-four hours postsurgery, a second catheter (iv catheter 24 gauge/0.75 inch, Angiocath™; Becton Dickinson) was implanted into the tail vein where rats received either vehicle or 10 mg/kg of MEP. Ten minutes post injection of vehicle or MEP, the tail vein catheter was connected to a syringe containing radiolabeled ^14C-palmitate (n = 8), ^14C-DHA (n = 6), or ^14C-EPA (n = 7) attached to a computer-controlled variable speed pump (PHD 22/2000; Harvard Apparatus, Holliston, MA). […] Each rat received a dose of 76 μCi ^14C-palmitate, 76 μCi ^14C-DHA, or 78 μCi ^14C-EPA. […] The radiotracer infusions continued until rats were euthanized. The brain was excised and cut sagittally. Both hemispheres were stored at −80°C for radioactive and biochemical analyses. Plasma was isolated from whole blood via microcentrifugation at 6,200 rpm (2,000 g) for 5 min and stored at −80°C. Total lipids from one brain hemisphere and from plasma were extracted by the method of Folch, Lees, and Sloane Stanley ([39]). Isolation of various neutral lipid and phospholipid classes from the total lipid extract was previously described by Chen, Liu, and Bazinet ([6]).

[3] = Radioactivity in brain lipid fractions after 5 min intravenous 14C-tracer infusion (TLC, LSC); details: MEP vs vehicle
Protocol: as §1, with “([6]). FA methyl esters and radioactive acyl-CoA analysis were previously described by Chen, Liu, and Bazinet ([6]).” for “([6]).”

CCCCCCCCCCCCCCC1(C(=O)OC)CO1 (stereo not drawn) [MEP, methyl-2-tetradecylglycidate, reference compound]
fold increase in brain unesterified EPA [1]: 1.3 fold
fold increase in brain unesterified linoleate (18:2n-6) [1]: 1.4 fold
fold increase in brain unesterified palmitate [1]: 2.5 fold
fold increase in brain unesterified α-linolenate (18:3n-3) [1]: 1.5 fold
reduction of radioactivity in brain aqueous fraction ([2]; 14C-DHA-infused rats): 23%
reduction of radioactivity in brain aqueous fraction ([2]; 14C-EPA-infused rats): 54%
reduction of radioactivity in brain aqueous fraction ([2]; 14C-palmitate-infused rats): 74%
increase in radioactivity of PtdSer ([3]; 14C-EPA-infused rats): 49%
increase in radioactivity of PtdIns ([3]; 14C-palmitate-infused rats): 65%
